Test systems include A549 NSCLC; SK-OV-3 ovarian; CCRF-CEM leukemia; HOP-62 NSCLC; CAKI-1 renal; SK-MEL-28 melanoma; OVCAR-5 ovarian; OVCAR-3 ovarian; MALME-3M melanoma; UO-31 renal.
Holding throughout (assay): NCI-60 cell line screen, 48 h

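These data come from cells grown in 96-well plates and exposed to compound for 48 hours at five concentrations. At the GI50, growth is halved. At the TGI there is no net growth.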

As for `CC(C)OC(=O)C(NC(=O)C(CC(=O)OCc1ccccc1)NC(=O)OCc1ccccc1)NC(=O)C1C(C)(C)CCC1(C)C` (stereo not given), the TGI with A549 NSCLC was 5.07 µM; in the test with SK-OV-3 ovarian, 10.4 µM; in the test with CCRF-CEM leukemia, > 41.2 µM; in the test on HOP-62 NSCLC it was 18.7 µM; in the test on CAKI-1 renal it was 21.9 µM; with SK-MEL-28 melanoma, > 56.2 µM. For the same compound, the TGI was > 55.6 µM in the test with OVCAR-5 ovarian, 8.01 µM in the test on OVCAR-3 ovarian, 44.9 µM with MALME-3M melanoma and 13.4 µM with UO-31 renal.

With `COc1cc(C=O)cc(C=Nc2ccc(Br)cc2)c1O`, the TGI is > 100 µM in the test on A549 NSCLC; 7.83 µM with SK-OV-3 ovarian; 27.7 µM in the test on CCRF-CEM leukemia; 55.9 µM in the test with HOP-62 NSCLC; 42 µM with CAKI-1 renal; > 100 µM in the test on SK-MEL-28 melanoma. The TGI was > 100 µM with OVCAR-5 ovarian, > 100 µM in the test with OVCAR-3 ovarian, 17.2 µM with MALME-3M melanoma and 50.6 µM in the test with UO-31 renal.

As to `CC(C)CNP(=O)(NCC(C)C)Oc1ccc(CC(NC(=O)OCc2ccccc2)C(=O)OCc2ccccc2)cc1` (stereo not given), the TGI with A549 NSCLC is > 100 µM; in the test with SK-OV-3 ovarian it was 29.2 µM; in the test on CCRF-CEM leukemia, 32.8 µM; in the test with HOP-62 NSCLC it was 30.8 µM; in the test with CAKI-1 renal it was > 100 µM; with SK-MEL-28 melanoma it was 30.5 µM. Moreover, the TGI in the test with OVCAR-5 ovarian is > 100 µM; in the test with OVCAR-3 ovarian it was 16 µM; with MALME-3M melanoma, 34.9 µM; in the test on UO-31 renal, 39 µM.

As for `CCOC(=O)C1C(c2ccc(Br)cc2)N(Cc2ccccc2)C(c2ccc(Br)cc2)C(C(=O)OC)S1(=O)=O` (stereo not given), the TGI in the test on A549 NSCLC, in the test on SK-OV-3 ovarian, in the test with CCRF-CEM leukemia, with HOP-62 NSCLC, in the test with CAKI-1 renal and in the test on SK-MEL-28 melanoma was > 100 µM throughout. In addition, the TGI in the test with OVCAR-5 ovarian, in the test on OVCAR-3 ovarian, in the test with MALME-3M melanoma and with UO-31 renal was > 100 µM each time.

For the compound `OCCN1CCN(c2nc(N3CCCC3)c3nc(Cl)c(NCc4ccccc4)nc3n2)CC1`, the TGI in the test on A549 NSCLC is 21.4 µM; with SK-OV-3 ovarian, 27.5 µM; with CCRF-CEM leukemia it was 11.7 µM; in the test on HOP-62 NSCLC, 8.98 µM; with CAKI-1 renal, 23.7 µM; in the test on SK-MEL-28 melanoma, 9.08 µM. For the same compound, the TGI is 26.6 µM in the test with OVCAR-5 ovarian, 23.5 µM in the test on OVCAR-3 ovarian, 11.7 µM in the test with MALME-3M melanoma and 11.5 µM in the test with UO-31 renal.

Turning to `CC(=O)Oc1cc2c(cc1OCC(F)(F)F)[C@H]1CC[C@]3(C)[C@@H](OC(C)=O)CC[C@H]3[C@@H]1CC2=O`, the TGI was 77.7 µM in the test with A549 NSCLC; 59.7 µM in the test on SK-OV-3 ovarian; 40.1 µM in the test on CCRF-CEM leukemia; > 70 µM in the test with HOP-62 NSCLC; 47 µM with CAKI-1 renal; > 67.6 µM in the test on SK-MEL-28 melanoma. For the same compound, the TGI with OVCAR-5 ovarian stood at 44.5 µM; in the test with OVCAR-3 ovarian, 45.6 µM; with MALME-3M melanoma it was 47.9 µM; in the test with UO-31 renal it was 42.2 µM.

On to `N#Cc1cc(F)cc(Oc2ccc(S(=O)(=O)C(F)F)c3c2CC(F)(F)[C@H]3O)c1`, for which the GI50 with A549 NSCLC is 27.9 µM; in the test with SK-OV-3 ovarian it was 31.4 µM; in the test with CCRF-CEM leukemia, 22.9 µM; in the test with HOP-62 NSCLC, 51.1 µM; in the test with CAKI-1 renal, 27.7 µM; with SK-MEL-28 melanoma it was 36.1 µM. The GI50 with OVCAR-5 ovarian was 51 µM; in the test with OVCAR-3 ovarian it was 36.5 µM; in the test with MALME-3M melanoma, 28.5 µM; with UO-31 renal, 15.1 µM. The TGI in the test with A549 NSCLC, with SK-OV-3 ovarian, in the test on CCRF-CEM leukemia, in the test with HOP-62 NSCLC, in the test on CAKI-1 renal and in the test with SK-MEL-28 melanoma was > 100 µM throughout. Moreover, the TGI is > 100 µM in the test with OVCAR-5 ovarian, > 100 µM in the test on OVCAR-3 ovarian, > 100 µM in the test on MALME-3M melanoma and 69.9 µM with UO-31 renal.

Regarding `CCOC(=O)C(Cc1ccc(N=NN(C)C)cc1)NC(=O)CC1c2ccccc2-c2ccccc21` (stereo not given), the TGI in the test with A549 NSCLC, in the test with SK-OV-3 ovarian, with CCRF-CEM leukemia, with HOP-62 NSCLC, in the test on CAKI-1 renal and with SK-MEL-28 melanoma was > 100 µM each time. Moreover, the TGI in the test with OVCAR-5 ovarian, in the test on OVCAR-3 ovarian, in the test on MALME-3M melanoma and in the test on UO-31 renal was > 100 µM each time.

As to `CC1(C)C(=O)/C(=C/c2ccccc2)C(C)(C)C1(C)C`, the TGI was > 100 µM in the test on A549 NSCLC; > 100 µM in the test with SK-OV-3 ovarian; > 71.5 µM in the test with CCRF-CEM leukemia; 98.9 µM in the test on HOP-62 NSCLC; > 100 µM with CAKI-1 renal; > 100 µM in the test with SK-MEL-28 melanoma. Besides, the TGI was > 100 µM in the test with OVCAR-5 ovarian, > 83.2 µM in the test on OVCAR-3 ovarian, > 100 µM with MALME-3M melanoma and > 100 µM in the test on UO-31 renal.

As for `Cc1cc(NC(=O)NC(=O)c2ccccc2NC(=O)CN(C)C)ccc1Oc1ncc(Br)cn1`, the TGI in the test on A549 NSCLC is > 100 µM; in the test with SK-OV-3 ovarian, > 91.5 µM; in the test on CCRF-CEM leukemia, > 63.8 µM; in the test on HOP-62 NSCLC, > 76.4 µM; with CAKI-1 renal, 64.3 µM; in the test on SK-MEL-28 melanoma, > 56.2 µM. Also, the TGI with OVCAR-5 ovarian was > 100 µM; in the test on OVCAR-3 ovarian, 13.1 µM; with MALME-3M melanoma it was > 100 µM; with UO-31 renal, > 100 µM.

As to `O=C1Nc2noc(=O)nc2NO1`, the TGI with A549 NSCLC, with SK-OV-3 ovarian, in the test with CCRF-CEM leukemia, in the test with HOP-62 NSCLC, with CAKI-1 renal and in the test with SK-MEL-28 melanoma was > 200 µM each time. Besides, the TGI with OVCAR-5 ovarian, in the test on OVCAR-3 ovarian, with MALME-3M melanoma and in the test on UO-31 renal was > 200 µM each time.

As to `O=c1c2ccc(Cl)cc2oc2c(CSc3ccccc3)cccc12`, the TGI was > 100 µM in the test with A549 NSCLC; > 100 µM in the test with SK-OV-3 ovarian; > 100 µM in the test with CCRF-CEM leukemia; > 100 µM with HOP-62 NSCLC; > 79.7 µM with CAKI-1 renal; > 100 µM in the test on SK-MEL-28 melanoma. Also, the TGI is > 100 µM in the test on OVCAR-5 ovarian, > 100 µM in the test on OVCAR-3 ovarian, > 61.1 µM in the test with MALME-3M melanoma and > 38.4 µM in the test on UO-31 renal.

Values taken from PubChem BioAssay (NCI).
